Test results published in PubChem BioAssay AID330 (DTP/NCI, 2004).
Values joined by “and” are separate entries in the source; they are usually repeats but may differ in a detail not shown here. Equal values may be shown once. Inconclusive results and toxic doses are left out.

Test system: P388 leukemia ip, CD2F1 mice, survival T/C
Assay: NCI In Vivo Anticancer Drug Screen. Data for tumor model P388 Leukemia (intraperitoneal) in CD2F1 (CDF1) mice
Settings: endpoint: median survival time, higher = longer survival
Procedure, shortened: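 Mice carrying the transplanted tumor received test compound or vehicle. Survival was recorded in each group, and the value is the treated-group measurement divided by that of the vehicle-treated control group.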

[1] = dose: 100.0 mg/kg/injection, schedule: Q04DX003 (ip), vehicle: saline
[2] = dose: 60.0 mg/kg/injection, schedule: Q01DX005 (ip), vehicle: saline with Tween-80
[3] = dose: 120.0 mg/kg/injection, schedule: Q01DX005 (ip), vehicle: saline with Tween-80
[4] = dose: 240.0 mg/kg/injection, schedule: Q01DX005 (ip), vehicle: saline with Tween-80
[5] = dose: 6.25 mg/kg/injection, schedule: Q01DX005 (ip), vehicle: saline with Tween-80
[6] = dose: 12.5 mg/kg/injection, schedule: Q01DX005 (ip), vehicle: saline with Tween-80
[7] = dose: 50.0 mg/kg/injection, schedule: Q01DX009 (ip), vehicle: Klucel (hydroxypropylcellulose) (HPC)
[8] = dose: 100.0 mg/kg/injection, schedule: Q01DX009 (ip), vehicle: Klucel (hydroxypropylcellulose) (HPC)
[9] = dose: 200.0 mg/kg/injection, schedule: Q01DX009 (ip), vehicle: Klucel (hydroxypropylcellulose) (HPC)
[10] = dose: 50.0 mg/kg/injection, schedule: Q01DX005 (ip), vehicle: Klucel (hydroxypropylcellulose) (HPC)

## CCc1c(CC(=O)O)c2cc(C)ccc2n1Cc1ccc(Cl)cc1
dose: 12.5 mg/kg/injection, schedule: Q01DX009 (ip), vehicle: saline with Tween-80
  T/C: 95 % of control
dose: 25.0 mg/kg/injection, schedule: Q01DX009 (ip), vehicle: saline with Tween-80
  T/C: 104 % of control
dose: 25.0 mg/kg/injection, schedule: Q04DX003 (ip), vehicle: saline with Tween-80
  T/C: 104 % of control and 95 % of control and 91 % of control
dose: 50.0 mg/kg/injection, schedule: Q01DX009 (ip), vehicle: saline with Tween-80
  T/C: 109 % of control
dose: 50.0 mg/kg/injection, schedule: Q04DX003 (ip), vehicle: saline with Tween-80
  T/C: 108 % of control and 91 % of control
dose: 100.0 mg/kg/injection, schedule: Q04DX003 (ip), vehicle: saline with Tween-80
  T/C: 90 % of control and 108 % of control and 92 % of control
[1]
  T/C: 96 % of control
dose: 200.0 mg/kg/injection, schedule: Q04DX003 (ip), vehicle: saline with Tween-80
  T/C: 90 % of control

## CCOC(=O)C(c1ccccc1)c1cccc(C(C(=O)OCC)c2ccccc2)n1 (stereo not given)
[2]
  T/C: 93 % of control
[3]
  T/C: 90 % of control
[4]
  T/C: 87 % of control

## O=C1NC(=O)C2(CCC(O)C2)c2ccncc21 (stereo not given)
dose: 0.12 mg/kg/injection, schedule: Q01DX009 (ip), vehicle: saline + Tween-80 + alcohol
  T/C: 103 % of control
dose: 0.25 mg/kg/injection, schedule: Q01DX009 (ip), vehicle: saline + Tween-80 + alcohol
  T/C: 100 % of control
dose: 0.5 mg/kg/injection, schedule: Q01DX009 (ip), vehicle: saline + Tween-80 + alcohol
  T/C: 103 % of control
dose: 1.0 mg/kg/injection, schedule: Q01DX009 (ip), vehicle: saline + Tween-80 + alcohol
  T/C: 100 % of control and 120 % of control
dose: 1.4 mg/kg/injection, schedule: Q01DX009 (ip), vehicle: saline + Tween-80 + alcohol
  T/C: 117 % of control

## COC(=O)C(C(=O)OC)=S1C=CC=C1
[1]
  T/C: 106 % of control
dose: 200.0 mg/kg/injection, schedule: Q04DX003 (ip), vehicle: saline
  T/C: 100 % of control
dose: 400.0 mg/kg/injection, schedule: Q04DX003 (ip), vehicle: saline
  T/C: 106 % of control

## COC(=O)C(=O)C(C(=O)C=C(C)C)c1nc2n(c1O)C(=N)N=N2 (stereo not given)
dose: 60.0 mg/kg/injection, schedule: Q01DX005 (ip), vehicle: saline
  T/C: 116 % of control
dose: 120.0 mg/kg/injection, schedule: Q01DX005 (ip), vehicle: saline
  T/C: 107 % of control
dose: 240.0 mg/kg/injection, schedule: Q01DX005 (ip), vehicle: saline
  T/C: 104 % of control

## O=C(NC1CCOC1=O)OCc1ccccc1 (stereo not given)
dose: 25.0 mg/kg/injection, schedule: Q01DX009 (ip), vehicle: distilled water + Tween-80
  T/C: 110 % of control
dose: 50.0 mg/kg/injection, schedule: Q01DX009 (ip), vehicle: distilled water + Tween-80
  T/C: 95 % of control
dose: 100.0 mg/kg/injection, schedule: Q01DX009 (ip), vehicle: distilled water + Tween-80
  T/C: 117 % of control
dose: 200.0 mg/kg/injection, schedule: Q01DX009 (ip), vehicle: distilled water + Tween-80
  T/C: 111 % of control

## O=C1NC2Cc3ccccc3C(C2)O1 (stereo not given)
[2]
  T/C: 101 % of control
[3]
  T/C: 100 % of control
[4]
  T/C: 93 % of control

## O=c1[nH]cnc2ccc3[nH]ncc3c12
dose: 50.0 mg/kg/injection, schedule: Q01DX005 (ip), vehicle: saline with Tween-80
  T/C: 92 % of control
dose: 100.0 mg/kg/injection, schedule: Q01DX005 (ip), vehicle: saline with Tween-80
  T/C: 94 % of control
dose: 200.0 mg/kg/injection, schedule: Q01DX005 (ip), vehicle: saline with Tween-80
  T/C: 105 % of control

## Cl/N=C1C=C/C(=N\Cl)C=C/1Cl
[5]
  T/C: 110 % of control
[6]
  T/C: 110 % of control
dose: 25.0 mg/kg/injection, schedule: Q01DX005 (ip), vehicle: saline with Tween-80
  T/C: 107 % of control

## CCCCCCCCCCCCCCCC(=O)OCC(=O)OC
[7]
  T/C: 101 % of control
[8]
  T/C: 93 % of control
[9]
  T/C: 93 % of control

## O=C(OCC1N=C1c1ccccc1)c1ccc(Br)cc1 (stereo not given)
dose: 100.0 mg/kg/injection, schedule: Q01DX001 (ip), vehicle: suspension in saline
  T/C: 104 % of control
dose: 200.0 mg/kg/injection, schedule: Q01DX001 (ip), vehicle: suspension in saline
  T/C: 99 % of control
dose: 400.0 mg/kg/injection, schedule: Q01DX001 (ip), vehicle: suspension in saline
  T/C: 104 % of control

## CCOC(=O)c1c(C)c2c(n1C)CCC(C(=O)OCC)C2=O (stereo not given)
dose: 50.0 mg/kg/injection, schedule: Q04DX003 (ip), vehicle: Klucel (hydroxypropylcellulose) (HPC)
  T/C: 107 % of control
dose: 100.0 mg/kg/injection, schedule: Q04DX003 (ip), vehicle: Klucel (hydroxypropylcellulose) (HPC)
  T/C: 100 % of control
dose: 200.0 mg/kg/injection, schedule: Q04DX003 (ip), vehicle: Klucel (hydroxypropylcellulose) (HPC)
  T/C: 91 % of control

## CCCc1cc(=O)n(-c2ccc([N+](=O)[O-])cn2)c(=S)[nH]1
dose: 12.5 mg/kg/injection, schedule: Q01DX005 (ip), vehicle: Klucel (hydroxypropylcellulose) (HPC)
  T/C: 95 % of control
dose: 25.0 mg/kg/injection, schedule: Q01DX005 (ip), vehicle: Klucel (hydroxypropylcellulose) (HPC)
  T/C: 106 % of control
[10]
  T/C: 101 % of control and 116 % of control

## O=c1c2cc3ccccc3n2c(=O)c2cc3ccccc3n12
[7]
  T/C: 87 % of control
[8]
  T/C: 91 % of control
[9]
  T/C: 92 % of control

## CC1CCCC(C2CC3CCCCC3C(N)[N-]2)[N-]1.CC1CCCC(C2CC3CCCCC3C(N)[N-]2)[N-]1.O=[N+]([O-])O.[Cu+2] (stereo not given)
dose: 100.0 mg/kg/injection, schedule: Q04DX002 (ip), vehicle: suspension in saline
  T/C: 105 % of control
dose: 200.0 mg/kg/injection, schedule: Q04DX002 (ip), vehicle: suspension in saline
  T/C: 112 % of control

## Nc1ccc2nc3ccc(=O)cc-3n(-c3ccccc3)c2c1
dose: 0.5 mg/kg/injection, schedule: Q01DX009 (ip), vehicle: saline
  T/C: 115 % of control
dose: 1.0 mg/kg/injection, schedule: Q01DX009 (ip), vehicle: saline
  T/C: 124 % of control
dose: 1.25 mg/kg/injection, schedule: Q01DX009 (ip), vehicle: saline
  T/C: 102 % of control
dose: 2.5 mg/kg/injection, schedule: Q01DX009 (ip), vehicle: saline
  T/C: 104 % of control
dose: 5.0 mg/kg/injection, schedule: Q01DX009 (ip), vehicle: saline
  T/C: 105 % of control
dose: 20.0 mg/kg/injection, schedule: Q01DX009 (ip), vehicle: saline
  T/C: 119 % of control
dose: 40.0 mg/kg/injection, schedule: Q01DX009 (ip), vehicle: saline
  T/C: 114 % of control

## CCCCCCCCC(O)C#CC(N)=O (stereo not given)
dose: 100.0 mg/kg/injection, schedule: Q01DX001 (ip), vehicle: saline with Tween-80
  T/C: 99 % of control
dose: 200.0 mg/kg/injection, schedule: Q01DX001 (ip), vehicle: saline with Tween-80
  T/C: 90 % of control

## CCC1C[N+]2=C(c3cc(OC)c(OC)cc3CC2)c2c1cc1n2CCc2cc(OC)c(OC)cc2-1 (stereo not given)
dose: 0.75 mg/kg/injection, schedule: Q01DX005 (ip), vehicle: saline with Tween-80
  T/C: 101 % of control
dose: 1.5 mg/kg/injection, schedule: Q01DX005 (ip), vehicle: saline with Tween-80
  T/C: 109 % of control
dose: 3.0 mg/kg/injection, schedule: Q01DX005 (ip), vehicle: saline with Tween-80
  T/C: 117 % of control
dose: 3.12 mg/kg/injection, schedule: Q01DX005 (ip), vehicle: saline with Tween-80
  T/C: 111 % of control
[5]
  T/C: 109 % of control
[6]
  T/C: 114 % of control

## COc1cc(N(CC(C)Br)CC(C)Br)ccc1N=Nc1ccccc1C(=O)O (stereo not given)
dose: 1.56 mg/kg/injection, schedule: Q01DX009 (ip), vehicle: saline with Tween-80
  T/C: 164 % of control
dose: 3.12 mg/kg/injection, schedule: Q01DX009 (ip), vehicle: saline with Tween-80
  T/C: 160 % of control and 169 % of control

## Cc1ccc(N(C(=O)c2ccc(Cl)cc2)C(=S)C#N)cc1
dose: 60.0 mg/kg/injection, schedule: Q01DX005 (ip), vehicle: Klucel + Tween-80
  T/C: 89 % of control
dose: 120.0 mg/kg/injection, schedule: Q01DX005 (ip), vehicle: Klucel + Tween-80
  T/C: 95 % of control
dose: 240.0 mg/kg/injection, schedule: Q01DX005 (ip), vehicle: Klucel + Tween-80
  T/C: 103 % of control

## O=C(Nc1ccccc1C(=O)NCC1CC1)c1cccs1
[2]
  T/C: 106 % of control
[3]
  T/C: 100 % of control
[4]
  T/C: 99 % of control

## Cc1ccc2c(N(C)C)cc(N(C)C)nc2c1C
[7]
  T/C: 104 % of control
[8]
  T/C: 105 % of control

## CN(C)C1=CC(=S)NC(c2ccccc2)C1 (stereo not given)
[10]
  T/C: 103 % of control
dose: 100.0 mg/kg/injection, schedule: Q01DX005 (ip), vehicle: Klucel (hydroxypropylcellulose) (HPC)
  T/C: 100 % of control
dose: 200.0 mg/kg/injection, schedule: Q01DX005 (ip), vehicle: Klucel (hydroxypropylcellulose) (HPC)
  T/C: 105 % of control
